Experiment: Inhibitory activity against thrombin induced platelet aggregation

| Structure (SMILES) | IC50 |
| --- | --- |
| CN[C@H](Cc1ccccc1)C(=O)N1CCC[C@H]1C(=O)N[C@@H](CCCN=C(N)N)C(=O)c1nc2ccccc2s1 [RWJ-50353] | 23 nM |
| CN[C@H](Cc1ccccc1)C(=O)N1CCC[C@H]1C(=O)N[C@H](C=O)CCCN=C(N)N [1-(2-Methylamino-3-phenyl-propionyl)-pyrrolidine-2-carboxylic acid (1-formyl-4-guanidino-butyl)-amide] | 23 nM |

— BindingDB's records for doi:10.1021/jm9603274 (R. W. Johnson Pharmaceutical Research Institute, 1996)
